The text below walks through data of PMC8911046, “Identification of Kukoamine A, Zeaxanthin, and Clexane as New Furin Inhibitors” (International Journal of Molecular Sciences, 2022).

Molecules are shown by their SMILES. Where “and” joins values, the source holds several entries; their conditions need not be identical. Identical values can stand only once. Residues, ends and D or L forms follow the SMILES beside them. *: point of attachment. Decanoyl = CCCCCCCCCC(=O)*; CH2Cl = ClC*

The target in series [1] is T1, furin from the U-251 MG secretome (Homo sapiens, UniProt P09958).
T1 construct: physiological furin secreted from U-251 MG cells; endogenous in cells; host or cells: U-251 MG human glioblastoma cells; conditioned medium (secretome) concentrated 10x
T1 sequence (P09958 108-715 limits assumed): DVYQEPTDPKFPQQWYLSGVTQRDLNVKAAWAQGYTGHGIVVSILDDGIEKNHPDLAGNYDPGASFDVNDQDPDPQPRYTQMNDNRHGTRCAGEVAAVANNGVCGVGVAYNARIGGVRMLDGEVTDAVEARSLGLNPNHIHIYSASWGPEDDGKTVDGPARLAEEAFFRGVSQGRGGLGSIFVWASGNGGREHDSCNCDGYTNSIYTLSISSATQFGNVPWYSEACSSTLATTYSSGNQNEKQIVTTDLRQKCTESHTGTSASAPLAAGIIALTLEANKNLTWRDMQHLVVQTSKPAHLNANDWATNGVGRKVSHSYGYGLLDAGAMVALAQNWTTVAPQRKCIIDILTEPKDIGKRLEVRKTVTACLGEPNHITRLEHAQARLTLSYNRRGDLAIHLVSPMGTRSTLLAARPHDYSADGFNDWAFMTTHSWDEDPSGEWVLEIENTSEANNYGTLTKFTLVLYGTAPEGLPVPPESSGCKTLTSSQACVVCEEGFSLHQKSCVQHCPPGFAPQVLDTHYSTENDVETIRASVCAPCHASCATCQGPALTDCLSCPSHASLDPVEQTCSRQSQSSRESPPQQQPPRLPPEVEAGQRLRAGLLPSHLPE
The series can be described thus: Furin inhibition assay in coadjuvants with CMK. The class given is biochemical. The settings on record: CMK alone, read-out: IC50 for CMK alone, physiological furin. How it is done: The IC50 was calculated only for those compounds that inhibited recombinant and physiological furin. For each compound concentration, furin activity’s maximum velocity (mRFU/min) was recorded. Then, by using GraphPad software (v. 8), the correlation between the decimal logarithm (compound concentration) and furin activity’s maximum velocity was calculated by nonlinear regression (curve fit) for XY analyses. From this statistical method, the IC50 was calculated with a 95% confidence interval (CI).
Since furin inhibition by CMK had been tested only in physiological conditions, adjuvant inhibition assays were performed with furin from the U-251 MG secretome. Inhibition was assessed by using different concentrations of CMK (Cat.No. B5437; APExBIO) and the IC50 concentrations of selected virtual screening compounds or Clexane. In a 96-well black plate, various CMK (0–50 µM) concentrations were incubated with the IC50 concentrations of the rest of the compounds and with 10× U-251 MG secretome as described above. After 10 min incubation at room temperature, 50 µM furin specific fluorogenic substrate was added and the plate was read in a Multiskan Go plate reader at 380 and 460 nm for emission and excitation wavelengths, respectively, at 37 °C for 30 min.

The next series has as its target T2, human recombinant furin (Homo sapiens, UniProt P09958).
T2 construct: purchased R&D Systems 1503-SE-010
The series can be described thus: Fluorogenic furin inhibition assay, recombinant furin. The class given is biochemical. Particulars: 3.6 nM human recombinant furin, 50 µM fluorogenic substrate, pH 9. On the procedure: Clexane (LMWH, enoxaparin sodium, Clexane, Sanofi Aventis S.A., Barcelona, Spain) and each candidate compound selected by virtual screening were assayed as inhibitors of human recombinant furin (1503-SE-010; Lot#INK2320031; R&D Systems) and physiological furin secreted from U-251 MG cells. For both types of furin, the fluorogenic specific substrate (mentioned above) was used. […] Compounds were reconstituted in their appropriate solvents (distilled water, ethanol, PBS, etc.), according to the supplier’s instructions. In a 96-well black plate, U-251 MG secretome concentrated 10× or 3.6 nM human recombinant furin were incubated with different compound concentrations for 10 min at room temperature, and then, 50 µM furin specific fluorogenic substrate was added to every well, except one blank. Fluorescence was recorded in the Multiskan Go plate reader at 380 and 460 nm for emission and excitation wavelengths, respectively, at 37 °C for 30 min.
The IC50 was calculated only for those compounds that inhibited recombinant and physiological furin. For each compound concentration, furin activity’s maximum velocity (mRFU/min) was recorded. Then, by using GraphPad software (v. 8), the correlation between the decimal logarithm (compound concentration) and furin activity’s maximum velocity was calculated by nonlinear regression (curve fit) for XY analyses. […]

For the next series, the system named is 293T HEK cell line. In words: Cell viability by 7-AAD flow cytometry. Type of series: cell-based. Particulars: for Alive (%) / Dead (%): 293T HEK; for percentage of live cells: half of the IC50 for physiological furin, no compound 94.25% ± 3.18%. How it is done: New furin inhibitors identified by virtual screening were tested in cell viability assays. The 293T HEK cell line (human embryonic kidney cell line purchased from American Type Culture Collection) was used as healthy cell model. They were cultured in DMEM containing 4,5 g/L glucose, supplemented with 10% fetal bovine serum, 1% GlutaMax, and 0,1% gentamicin. They were maintained in Corning® T-75 flasks (catalog #430641; ThermoFisher Scientific, Waltham, MA, USA) at 37 °C and 5% carbon dioxide. At 100% cellular confluence, cells were subcultured in 12-well plates (flat bottom, sterile, NUNC brand, Biolab, Madrid, Spain) at 100,000 cells/mL for 24 h. Then, different concentrations (double, half, and full IC50 concentrations for physiological furin) of furin inhibitors were added to cells for 24 h, and cells were collected afterward. The experiment was run in duplicates. Then, the cell pellet was resuspended in running buffer (autoMACS ® Running Buffer–MACS Separation Buffer; order no.:130-091-221; Miltenyi Biotec, Madrid, Spain) and 7-AAD (Cat: 51-68981E; BD Biosciences, Madrid, Spain). Finally, this solution was evaluated in a flow cytometer (BD Accuri™ C6 Plus Flow Cytometer; BD Biosciences, Madrid, Spain) to calculate mortality rates. A blank solution with cell pellet resuspended in running buffer was used to discard cell autofluorescence. The results were analyzed in FlowJo software (v. 10).
In general terms: Flow cytometry measures light scatter and fluorescence of single cells or particles in a stream.

On the set-up of series [2]: method as in PMID 27241194, PMID 28254666. The settings on record: rats or mice, doses between 5 and 20 mg/kg; cited from earlier work.
The mark [3] stands for this setting: 2xIC50, single replicates of duplicate.
[4] abbreviates: IC50, single replicates of duplicate.
Setting [5] is: IC50/2, single replicates of duplicate.
The mark [6] stands for this setting: 293T cells, double IC50 concentration, 24 h.

T2 sequence (P09958 108-794): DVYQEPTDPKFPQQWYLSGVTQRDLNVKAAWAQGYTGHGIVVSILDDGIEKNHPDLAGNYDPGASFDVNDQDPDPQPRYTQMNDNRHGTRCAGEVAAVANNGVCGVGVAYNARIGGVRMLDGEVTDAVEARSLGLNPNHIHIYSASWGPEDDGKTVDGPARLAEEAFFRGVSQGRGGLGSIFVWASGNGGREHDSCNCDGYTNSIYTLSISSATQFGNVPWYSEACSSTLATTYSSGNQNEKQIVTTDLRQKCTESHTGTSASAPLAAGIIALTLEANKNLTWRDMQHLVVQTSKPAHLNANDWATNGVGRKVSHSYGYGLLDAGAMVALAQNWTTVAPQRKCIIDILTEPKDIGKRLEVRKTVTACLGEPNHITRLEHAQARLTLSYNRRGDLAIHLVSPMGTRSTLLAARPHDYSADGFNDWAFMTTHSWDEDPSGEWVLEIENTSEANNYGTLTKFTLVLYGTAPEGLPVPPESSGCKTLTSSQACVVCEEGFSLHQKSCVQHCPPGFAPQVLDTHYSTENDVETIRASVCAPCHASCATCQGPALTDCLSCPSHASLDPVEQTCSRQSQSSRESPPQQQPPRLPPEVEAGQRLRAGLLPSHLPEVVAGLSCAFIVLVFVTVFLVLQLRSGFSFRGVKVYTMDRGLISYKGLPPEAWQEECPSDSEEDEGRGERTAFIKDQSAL

The term IC50 denotes the concentration that inhibits the measured activity by half. `CCCCCCCCCC(=O)N[C@@H](CCCNC(=N)N)C(=O)N[C@H](C(=O)N[C@@H](CCCCN)C(=O)N[C@@H](CCCNC(=N)N)C(=O)CCl)C(C)C` [CMK, Decanoyl-Arg-Val-Lys-Arg-chloromethylketone] (Decanoyl-RVKR-CH2Cl): the IC50 in series [1] was 4.2 µM.
`O=C(CCc1ccc(O)c(O)c1)NCCCNCCCCNCCCNC(=O)CCc1ccc(O)c(O)c1` [Kukoamine A]: the IC50 at human recombinant furin came to 1070 µM. Moreover, the “Alive (%)” value with 293T HEK cell line (setting [3]) was 6.25% and 5.88%; in the series on 293T HEK cell line (setting [4]), 8.33% and 0%; in the series on 293T HEK cell line (setting [5]), 89.8% and 85.3%. In addition, the “Dead (%)” value in the series on 293T HEK cell line (setting [3]) is 94.1% and 93.8%; in the series on 293T HEK cell line (setting [4]), 91.7% and 100%; with 293T HEK cell line (setting [5]) it was 10.2% and 14.7%. Besides, the “effect on cell viability” value in the series with 293T HEK cell line (setting [6]) is on record as “significantly reduced”; in the series on 293T HEK cell line (293T cells, full IC50 concentration, 24 h), “significantly reduced”. Moreover, the “percentage of live cells” value with 293T HEK cell line (293T cells, 24 h) was 87.55% ± 1.48%. In addition, in series [2], the adverse effects result is “no significant reported adverse effects”.
With `CC1=C(/C=C/C(C)=C/C=C/C(C)=C/C=C/C=C(C)/C=C/C=C(C)/C=C/C2=C(C)C[C@@H](O)CC2(C)C)C(C)(C)C[C@H](O)C1` [Zeaxanthin], the IC50 on human recombinant furin turned out to be 90.5 µM. Besides, the “Alive (%)” value was 1.10% and 15.7% in the series with 293T HEK cell line (setting [3]); 32.8% and 33.9% in the series on 293T HEK cell line (setting [4]); 78.2% and 84.0% with 293T HEK cell line (setting [5]). Moreover, the “Dead (%)” value is 84.3% and 98.9% in the series on 293T HEK cell line (setting [3]); 67.2% and 66.1% in the series on 293T HEK cell line (setting [4]); 21.8% and 16.0% with 293T HEK cell line (setting [5]). The “reduction of cell viability” value in the series with 293T HEK cell line (293T cells, IC50 concentration, 24 h) turned out to be 61%. Also, in the series on 293T HEK cell line (setting [6]), the “effect on cell viability” value was “nearly total death”. In the series on 293T HEK cell line (293T cells, 24 h), the “percentage of live cells” value is 81.1% ± 4.1%.
